# In patent publication EP4818157A1, “N-SUBSTITUTED CYCLIC AMIDE COMPOUND” (Kissei Pharmaceutical Co., Ltd., priority 2023, dated 2025):
# Biological target: T1, human TSHR (Homo sapiens, UniProt P16473)
# T1 construct: expressed in transfected cells
# Assay: Measurement of antagonist activity using TSH-induced cAMP production in human TSHR-stably expressing CHO cells
# Format: cell-based
# Conditions: human TSH final concentration 50 ng/mL
# In short: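 CHO cells stably expressing human TSHR, in HBSS/20 mM HEPES/1 mM IBMX, pre-incubated with compound 15 min at room temperature, then stimulated 1 h at 37°C with human TSH (50 ng/mL final). cAMP measured by HTRF (665/620 nm), expressed as % of control; IC50 from concentration-response.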
# T1 sequence (P16473 21-764): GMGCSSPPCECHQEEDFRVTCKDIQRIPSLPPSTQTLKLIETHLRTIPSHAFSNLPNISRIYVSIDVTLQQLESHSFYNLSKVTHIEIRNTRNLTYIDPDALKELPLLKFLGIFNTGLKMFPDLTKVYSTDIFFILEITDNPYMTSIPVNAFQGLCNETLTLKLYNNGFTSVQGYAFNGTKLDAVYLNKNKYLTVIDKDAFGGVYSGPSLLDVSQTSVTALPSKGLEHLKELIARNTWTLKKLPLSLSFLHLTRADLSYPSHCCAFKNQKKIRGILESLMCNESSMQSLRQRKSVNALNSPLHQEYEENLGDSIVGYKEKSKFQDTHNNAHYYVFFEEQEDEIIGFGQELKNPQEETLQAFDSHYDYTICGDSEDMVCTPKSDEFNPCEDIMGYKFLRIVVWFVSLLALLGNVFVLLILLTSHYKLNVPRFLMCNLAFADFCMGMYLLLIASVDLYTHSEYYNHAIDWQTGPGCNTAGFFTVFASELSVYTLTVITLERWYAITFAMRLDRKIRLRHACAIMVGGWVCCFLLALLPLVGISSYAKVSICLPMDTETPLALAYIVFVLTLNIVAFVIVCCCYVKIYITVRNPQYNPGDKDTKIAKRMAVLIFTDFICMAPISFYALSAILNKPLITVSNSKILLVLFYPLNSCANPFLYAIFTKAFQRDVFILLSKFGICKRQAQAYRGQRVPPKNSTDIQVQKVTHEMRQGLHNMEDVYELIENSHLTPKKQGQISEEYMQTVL
row,IC50 [µM],SMILES
1,3 to 30,"NC(=O)N[C@@H]1Cc2ccc(C(F)F)cc2N(Cc2cc(C(F)(F)F)ccc2CO)C1=O [Example F-1, (R)-1-(7-(difluoromethyl)-1-(2-(hydroxymethyl)-5-(trifluoromethyl)benzyl)-2-oxo-1,2,3,4-tetrahydroquinolin-3-yl)urea]"
2,3 to 30,"CN(C)Cc1cccc2c1N(Cc1cc(C(F)(F)F)ccc1F)C(=O)[C@H](NC(N)=O)C2 [Example F-3, (R)-1-(8-((dimethylamino)methyl)-1-(2-fluoro-5-(trifluoromethyl)benzyl)-2-oxo-1,2,3,4-tetrahydroquinolin-3-yl)urea]"
3,< 3,"NC(=O)N[C@@H]1Cc2ccsc2N(Cc2cc(C(F)(F)F)ccc2F)C1=O [Example F-4, (R)-1-(7-(2-fluoro-5-(trifluoromethyl)benzyl)-6-oxo-4,5,6,7-tetrahydrothieno[2,3-b]pyridin-5-yl)urea]"
4,< 3,"NC(=O)N[C@@H]1Cc2sccc2N(Cc2cc(C(F)(F)F)ccc2F)C1=O [Example F-5, (R)-1-(4-(2-fluoro-5-(trifluoromethyl)benzyl)-5-oxo-4,5,6,7-tetrahydrothieno[3,2-b]pyridin-6-yl)urea]"
5,3 to 30,"Cc1nc2c(s1)N(Cc1cc(C(F)(F)F)ccc1F)C(=O)[C@H](NC(N)=O)C2 [Example F-6, (R)-1-(4-(2-fluoro-5-(trifluoromethyl)benzyl)-2-methyl-5-oxo-4,5,6,7-tetrahydrothiazolo[5,4-b]pyridin-6-yl)urea]"

# Continued, compound first:
row,SMILES,IC50 [µM]
1,"NC(=O)N[C@@H]1Cc2ccc(C(F)F)cc2N(Cc2cccc(C(F)(F)F)n2)C1=O [Example F-2, (R)-1-(7-(difluoromethyl)-2-oxo-1-((6-(trifluoromethyl)pyridin-2-yl)methyl)-1,2,3,4-tetrahydroquinolin-3-yl)urea]",< 3
2,"NC(=O)CC1Oc2ccccc2N(Cc2cc(C(F)(F)F)ccc2F)C1=O (centres unmarked) [Example F-7, 2-(4-(2-fluoro-5-(trifluoromethyl)benzyl)-3-oxo-3,4-dihydro-2H-benzo[b][1,4]oxazin-2-yl)acetamide]",> 30
3,"CC(C)(C)OC(=O)Nc1ccc2c(c1)OC(CC(N)=O)C(=O)N2Cc1cc(C(F)(F)F)ccc1F (centres unmarked) [Example F-8, tert-butyl (2-(2-amino-2-oxoethyl)-4-(2-fluoro-5-(trifluoromethyl)benzyl)-3-oxo-3,4-dihydro-2H-benzo[b][1,4]oxazin-7-yl)carbamate]",< 3
4,"CC(C)(C)NC(=O)Nc1ccc2c(c1)nc(NC(N)=O)c(=O)n2Cc1cc(C(F)(F)F)ccc1F [Example F-9, 1-(tert-butyl)-3-(1-(2-fluoro-5-(trifluoromethyl)benzyl)-2-oxo-3-ureido-1,2-dihydroquinoxalin-6-yl)urea]",< 3

# Biological target: T2, TSHR (Mus musculus, UniProt P47750)
# T2 construct: host or cells: mouse, in vivo (TRH- or M22-administered)
# Assay: not given
# Conditions: TSH-releasing hormone (TRH)-administered mouse; cited from earlier work
# T2 sequence (P47750 22-764): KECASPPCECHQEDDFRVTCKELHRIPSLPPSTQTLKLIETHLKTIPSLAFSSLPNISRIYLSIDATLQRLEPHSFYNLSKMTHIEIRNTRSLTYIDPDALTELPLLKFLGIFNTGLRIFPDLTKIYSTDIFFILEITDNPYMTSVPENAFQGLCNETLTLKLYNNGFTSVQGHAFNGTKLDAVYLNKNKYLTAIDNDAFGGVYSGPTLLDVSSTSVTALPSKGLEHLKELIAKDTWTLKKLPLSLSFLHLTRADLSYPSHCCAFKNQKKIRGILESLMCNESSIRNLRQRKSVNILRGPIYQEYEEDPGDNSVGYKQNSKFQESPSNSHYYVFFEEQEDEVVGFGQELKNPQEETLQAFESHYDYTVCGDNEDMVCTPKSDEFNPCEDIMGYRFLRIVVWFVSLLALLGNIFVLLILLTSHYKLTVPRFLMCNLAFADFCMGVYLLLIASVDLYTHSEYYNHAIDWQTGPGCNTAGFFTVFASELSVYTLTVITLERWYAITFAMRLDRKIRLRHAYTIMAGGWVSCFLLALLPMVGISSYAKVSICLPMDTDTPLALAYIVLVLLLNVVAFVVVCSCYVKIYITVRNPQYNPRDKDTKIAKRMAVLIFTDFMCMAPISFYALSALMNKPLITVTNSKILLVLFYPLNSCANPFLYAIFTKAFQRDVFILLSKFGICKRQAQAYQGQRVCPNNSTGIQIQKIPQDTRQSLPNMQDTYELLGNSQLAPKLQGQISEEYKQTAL
row,SMILES,blood T4 concentration
1,COc1ccc(C2Nc3ccccc3C(=O)N2Cc2ccco2)cc1COc1c(C)cc(NC(C)=O)cc1C (centres unmarked) [NCGC00242364],lowering a blood T4 concentration

# Same assay, conditions: thyroid-stimulating antibody (M22)-administered mouse; cited from earlier work
row,SMILES,blood T4 concentration
1,COc1ccc(C2Nc3ccccc3C(=O)N2Cc2ccco2)cc1COc1c(C)cc(NC(C)=O)cc1C (centres unmarked) [NCGC00242364],lowering a blood T4 concentration
